Among the data in patent US20260070945A1, “MACROCYCLIC IMMUNOMODULATORS” (Bristol-Myers Squibb Company, priority 2022, published 2026) are IC50 values, retold here.

Where a SMILES comes first, the peptide text is derived from it. Bridges are numbered along the chain shown (N, C = ends). [ ]: non-standard residue; d: D form. The star is where a group is joined. ξ: configuration not given here. Phe(4-COOH) = N[C@@H](Cc1ccc(C(=O)O)cc1)C(=O)O; Bip = N[C@@H](Cc1ccc(-c2ccccc2)cc1)C(=O)O; Phe(3-Me) = Cc1cccc(C[C@H](N)C(=O)O)c1; hArg = N=C(N)NCCCC[C@H](N)C(=O)O; hhGln = NC(=O)CCCC[C@H](N)C(=O)O; Cha = N[C@@H](CC1CCCCC1)C(=O)O; Cit = NC(=O)NCCC[C@H](N)C(=O)O; Ile(3ξ) = CCC(C)[C@H](N)C(=O)O; Carboxymethyl = O=C(O)C*; NMeA = CN[C@@H](C)C(=O)O; Orn = NCCC[C@H](N)C(=O)O; Aun = NCCCCCCCCCCC(=O)O; Dab = NCC[C@H](N)C(=O)O; Nva = CCC[C@H](N)C(=O)O; Dap = NC[C@H](N)C(=O)O; AEEA = NCCOCCOCC(=O)O

T1 sequence (Q15116 25-288): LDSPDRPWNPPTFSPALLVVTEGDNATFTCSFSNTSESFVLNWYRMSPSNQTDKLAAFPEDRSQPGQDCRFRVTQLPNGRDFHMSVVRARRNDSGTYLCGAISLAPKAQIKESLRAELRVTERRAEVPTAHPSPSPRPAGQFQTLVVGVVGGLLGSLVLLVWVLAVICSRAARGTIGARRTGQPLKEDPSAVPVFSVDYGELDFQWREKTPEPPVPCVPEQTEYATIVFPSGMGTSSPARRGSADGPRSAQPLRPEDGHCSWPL

This assay has as its target T1, PD-1/PD-L1 interaction (PE-labeled human PD-L1-Ig binding to Jurkat cell line over-expressing human PD-1) (Homo sapiens, UniProt Q15116).
T1 construct: expressed in transfected cells; host or cells: Jurkat
Nature of the assay: Jurkat-PD-1 Cell Binding High-Content Screening Assay (CBA). As to conditions: Jurkat-hPD-1 cells, PE-labeled PD-L1-Ig 20 nM final; read-out: Jurkat HPD1 PDL1 IC50. Put shortly: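 High-content imaging read-out of PE-PD-L1-Ig binding (20 nM final, 1 h) to Jurkat-hPD-1 cells, after 2 h compound exposure at 37 °C in DMEM with 10% FCS. Nuclei counterstained with Hoechst 33342 after paraformaldehyde fixation.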
By IC50 is commonly meant the concentration at which inhibition is half-maximal. For the compound `CC(C)C[C@@H]1NC(=O)[C@H](Cc2c[nH]c3ccccc23)NC(=O)[C@H](CC(=O)O)NC(=O)[C@H](Cc2ccc(OCC(=O)O)cc2)NC(=O)[C@H](CCCCNC(=N)N)NC(=O)CSC[C@@H](C(=O)NCC(=O)NCCOCCOCC(=O)N[C@@H](CCCN)C(=O)NCCCCCCCCCCC(=O)O)NC(=O)[C@H](CCCNC(N)=O)NC(=O)[C@H](C(C)C)NC(=O)[C@H](CC2CCCCC2)NC(=O)[C@H](CCN)NC(=O)[C@@H](CC(C)C)NC(=O)[C@H](C)N(C)C(=O)[C@H](C(C)C)NC(=O)[C@H](Cc2ccc(-c3ccccc3)cc2)NC1=O` [Example 2180] ({CH2CO}-[hArg]Y(Carboxymethyl)DWL[Bip]V[NMeA][dL][Dab][Cha]V[Cit]CG[AEEA][Orn][Aun]-OH; thioether N-14), the IC50 worked out at 0.0163 µM. As for `CC(C)C[C@@H]1NC(=O)[C@H](Cc2c[nH]c3ccccc23)NC(=O)[C@H](CC(=O)O)NC(=O)[C@H](Cc2ccc(OCC(=O)O)cc2)NC(=O)[C@H](CCCCNC(=N)N)NC(=O)CSC[C@@H](C(=O)NCC(=O)NCCOCCOCC(=O)N[C@@H](CCCCN)C(=O)NCCCCCCCCCCC(=O)O)NC(=O)[C@H](CCCNC(N)=O)NC(=O)[C@H](C(C)C)NC(=O)[C@H](CC2CCCCC2)NC(=O)[C@H](CCN)NC(=O)[C@@H](CC(C)C)NC(=O)[C@H](C)N(C)C(=O)[C@H](C(C)C)NC(=O)[C@H](Cc2ccc(-c3ccccc3)cc2)NC1=O` [Example 2181] ({CH2CO}-[hArg]Y(Carboxymethyl)DWL[Bip]V[NMeA][dL][Dab][Cha]V[Cit]CG[AEEA]K[Aun]-OH; thioether N-14), the IC50 was determined as 0.0211 µM. On to `CC(C)C[C@@H]1NC(=O)[C@H](Cc2c[nH]c3ccccc23)NC(=O)[C@H](CC(=O)O)NC(=O)[C@H](Cc2ccc(OCC(=O)O)cc2)NC(=O)[C@H](CCCCNC(=N)N)NC(=O)CSC[C@@H](C(=O)NCC(=O)NCCOCCOCC(=O)N[C@@H](CCCNC(N)=O)C(=O)NCCCCCCCCCCC(=O)O)NC(=O)[C@H](CCCNC(N)=O)NC(=O)[C@H](C(C)C)NC(=O)[C@H](CC2CCCCC2)NC(=O)[C@H](CCN)NC(=O)[C@@H](CC(C)C)NC(=O)[C@H](C)N(C)C(=O)[C@H](C(C)C)NC(=O)[C@H](Cc2ccc(-c3ccccc3)cc2)NC1=O` [Example 2182] ({CH2CO}-[hArg]Y(Carboxymethyl)DWL[Bip]V[NMeA][dL][Dab][Cha]V[Cit]CG[AEEA][Cit][Aun]-OH; thioether N-14), for which the IC50 is 0.0123 µM.

For `CC(C)C[C@@H]1NC(=O)[C@H](Cc2c[nH]c3ccccc23)NC(=O)[C@H](CC(=O)O)NC(=O)[C@H](Cc2ccc(OCC(=O)O)cc2)NC(=O)[C@H](CCCCNC(=N)N)NC(=O)CSC[C@@H](C(=O)NCCOCCOCC(=O)N[C@@H](CCCNC(N)=O)C(=O)NCCCCCCCCCCC(=O)O)NC(=O)[C@H](CCCNC(N)=O)NC(=O)[C@H](C(C)C)NC(=O)[C@H](CC2CCCCC2)NC(=O)[C@H](CCN)NC(=O)[C@@H](CC(C)C)NC(=O)[C@H](C)N(C)C(=O)[C@H](C(C)C)NC(=O)[C@H](Cc2ccc(-c3ccccc3)cc2)NC1=O` [Example 2183] ({CH2CO}-[hArg]Y(Carboxymethyl)DWL[Bip]V[NMeA][dL][Dab][Cha]V[Cit]C[AEEA][Cit][Aun]-OH; thioether N-14), the IC50 turned out to be 0.0192 µM. Consider `CCC(C)[C@@H]1NC(=O)[C@H](Cc2ccc(-c3ccccc3)cc2)NC(=O)[C@H](CC(C)C)NC(=O)[C@H](Cc2c[nH]c3ccccc23)NC(=O)[C@H](CC(=O)O)NC(=O)[C@H](Cc2ccc(OCC(=O)O)cc2)NC(=O)[C@H](CCCCNC(=N)N)NC(=O)CSC[C@@H](C(=O)NCCOCCOCC(=O)N[C@@H](CCN)C(=O)NCCCCCCCCCCC(=O)O)NC(=O)[C@H](CCCCN)NC(=O)[C@H](C(C)C)NC(=O)[C@H](CC2CCCCC2)NC(=O)[C@H](CCN)NC(=O)[C@@H](CC(C)C)NC(=O)[C@H](C)N(C)C1=O` (stereo partly drawn) [Example 2184] ({CH2CO}-[hArg]Y(Carboxymethyl)DWL[Bip][Ile(3ξ)][NMeA][dL][Dab][Cha]VKC[AEEA][Dab][Aun]-OH; thioether N-14), for which the IC50 was 0.0302 µM. Regarding `CCC(C)[C@@H]1NC(=O)[C@H](Cc2ccc(-c3ccccc3)cc2)NC(=O)[C@H](CC(C)C)NC(=O)[C@H](Cc2c[nH]c3ccccc23)NC(=O)[C@H](CC(=O)O)NC(=O)[C@H](Cc2ccc(OCC(=O)O)cc2)NC(=O)[C@H](CCCCNC(=N)N)NC(=O)CSC[C@@H](C(=O)NCCOCCOCC(=O)N[C@@H](CCN)C(=O)NCCCCCCCCCCC(=O)O)NC(=O)[C@H](CCCCN)NC(=O)[C@H](C(C)C)NC(=O)[C@H](CC2CCCCC2)NC(=O)[C@H](CCN)NC(=O)[C@@H](C)NC(=O)[C@H](C)N(C)C1=O` (stereo partly shown) [Example 2185] ({CH2CO}-[hArg]Y(Carboxymethyl)DWL[Bip][Ile(3ξ)][NMeA][dA][Dab][Cha]VKC[AEEA][Dab][Aun]-OH; thioether N-14), the IC50 was 0.0402 µM. As to `CC[C@H](C)[C@@H]1NC(=O)[C@H](Cc2ccc(-c3ccccc3)cc2)NC(=O)[C@H](CC(C)C)NC(=O)[C@H](Cc2c[nH]c3ccccc23)NC(=O)[C@H](CC(=O)O)NC(=O)[C@H](Cc2ccc(OCC(=O)O)cc2)NC(=O)[C@H](CCCCNC(=N)N)NC(=O)CSC[C@@H](C(=O)NCCOCCOCC(=O)N[C@@H](CCN)C(=O)NCCCCCCCCCCC(=O)O)NC(=O)[C@H](CCCCN)NC(=O)[C@H](C(C)C)NC(=O)[C@H](CC2CCCCC2)NC(=O)[C@H](CCN)NC(=O)[C@H]2CCCN2C(=O)[C@H](C)N(C)C1=O` [Example 2186] ({CH2CO}-[hArg]Y(Carboxymethyl)DWL[Bip]I[NMeA][dP][Dab][Cha]VKC[AEEA][Dab][Aun]-OH; thioether N-14), the IC50 came out at 0.158 µM. As to `CCC[C@@H]1NC(=O)[C@@H](CC(C)C)NC(=O)[C@H](C)N(C)C(=O)[C@H](C(C)C)NC(=O)[C@H](Cc2ccc(-c3ccccc3)cc2)NC(=O)[C@H](CC(C)C)NC(=O)[C@H](Cc2c[nH]c3ccccc23)NC(=O)[C@H](CC(=O)O)NC(=O)[C@H](Cc2ccc(C(=O)O)cc2)NC(=O)[C@H](Cc2ccc(OCC(=O)O)cc2)NC(=O)CSC[C@@H](C(=O)NCCOCCOCC(=O)NCCCCCCCCCCC(=O)O)NC(=O)[C@H](CCCCC(N)=O)NC(=O)[C@H](C(C)C)NC(=O)[C@H](CC2CCCCC2)NC1=O` [Example 2187] ({CH2CO}-Y(Carboxymethyl)[Phe(4-COOH)]DWL[Bip]V[NMeA][dL][Nva][Cha]V[hhGln]C[AEEA][Aun]-OH; thioether N-14), the IC50 stood at 0.0062 µM. Turning to `CC(C)C[C@@H]1NC(=O)[C@H](Cc2c[nH]c3ccccc23)NC(=O)[C@H](CC(=O)O)NC(=O)[C@H](Cc2ccc(C(=O)O)cc2)NC(=O)[C@H](Cc2ccc(OCC(=O)O)cc2)NC(=O)CSC[C@@H](C(=O)N[C@@H](CCN)C(=O)NCCCCCCCCCCC(=O)O)NC(=O)[C@H](CCCNC(N)=O)NC(=O)[C@H](C(C)C)NC(=O)[C@H](CC2CCCCC2)NC(=O)[C@H](CCN)NC(=O)[C@@H](CC(C)C)NC(=O)[C@H](C)N(C)C(=O)[C@H](C(C)C)NC(=O)[C@H](Cc2ccc(-c3ccccc3)cc2)NC1=O` [Example 2188] ({CH2CO}-Y(Carboxymethyl)[Phe(4-COOH)]DWL[Bip]V[NMeA][dL][Dab][Cha]V[Cit]C[Dab][Aun]-OH; thioether N-14), the IC50 was found to be 0.0121 µM.

For `Cc1cccc(C[C@@H]2NC(=O)[C@H](CC(=O)O)NC(=O)[C@H](Cc3ccc(C(=O)O)cc3)NC(=O)[C@H](Cc3ccc(OCC(=O)O)cc3)NC(=O)CSC[C@@H](C(=O)N[C@@H](CCCN)C(=O)NCCCCCCCCCCC(=O)O)NC(=O)[C@H](CO)NC(=O)[C@H](C(C)C)NC(=O)[C@H](CC3CCCCC3)NC(=O)[C@H](CN)NC(=O)[C@@H](CC(C)C)NC(=O)[C@H](C)N(C)C(=O)[C@H](C(C)C)NC(=O)[C@H](Cc3ccc(-c4ccccc4)cc3)NC(=O)[C@H](CC(C)C)NC2=O)c1` [Example 2189] ({CH2CO}-Y(Carboxymethyl)[Phe(4-COOH)]D[Phe(3-Me)]L[Bip]V[NMeA][dL][Dap][Cha]VSC[Orn][Aun]-OH; thioether N-14), the IC50 is 0.0289 µM. Consider `CC(C)C[C@H]1NC(=O)[C@H](C)N(C)C(=O)[C@H](C(C)C)NC(=O)[C@H](Cc2ccc(-c3ccccc3)cc2)NC(=O)[C@H](C(C)C)NC(=O)[C@H](Cc2c[nH]c3ccccc23)NC(=O)[C@H](CC(=O)O)NC(=O)[C@H](Cc2ccc(OCC(=O)O)cc2)NC(=O)[C@H](CCCCNC(=N)N)NC(=O)CSC[C@@H](C(=O)N[C@@H](CCN)C(=O)NCCCCCCCCCCC(=O)O)NC(=O)[C@H](CO)NC(=O)[C@H](C(C)C)NC(=O)[C@H](CC2CCCCC2)NC(=O)[C@H](CCN)NC1=O` [Example 2191] ({CH2CO}-[hArg]Y(Carboxymethyl)DWV[Bip]V[NMeA][dL][Dab][Cha]VSC[Dab][Aun]-OH; thioether N-14), for which the IC50 worked out at 0.0134 µM. Turning to `CC(C)C[C@@H]1NC(=O)[C@H](Cc2c[nH]c3ccccc23)NC(=O)[C@H](CC(=O)O)NC(=O)[C@H](Cc2ccc(C(=O)O)cc2)NC(=O)[C@H](Cc2ccc(OCC(=O)O)cc2)NC(=O)CSC[C@@H](C(=O)N[C@@H](CCN)C(=O)NCCOCCOCC(=O)NCCCCCCCCCCC(=O)O)NC(=O)[C@H](CCCCN)NC(=O)[C@H](C(C)C)NC(=O)[C@H](CC2CCCCC2)NC(=O)[C@H](CCN)NC(=O)[C@@H](CC(C)C)NC(=O)[C@H](C)N(C)C(=O)[C@H](C(C)C)NC(=O)[C@H](Cc2ccc(-c3ccccc3)cc2)NC1=O` [Example 2192] ({CH2CO}-Y(Carboxymethyl)[Phe(4-COOH)]DWL[Bip]V[NMeA][dL][Dab][Cha]VKC[Dab][AEEA][Aun]-OH; thioether N-14), the IC50 was determined as 0.0076 µM. Regarding `CC(C)C[C@@H]1NC(=O)[C@H](Cc2c[nH]c3ccccc23)NC(=O)[C@H](CC(=O)O)NC(=O)[C@H](Cc2c[nH]cn2)NC(=O)[C@H](CCCCNC(=N)N)NC(=O)CSC[C@@H](C(=O)N[C@@H](CCN)C(=O)NCCCCCCCCCCC(=O)O)NC(=O)[C@H](CCCCN)NC(=O)[C@H](C(C)C)NC(=O)[C@H](CC2CCCCC2)NC(=O)[C@H](CCN)NC(=O)[C@@H](CC(C)C)NC(=O)[C@H](C)N(C)C(=O)[C@H](C(C)C)NC(=O)[C@H](Cc2ccc(-c3ccccc3)cc2)NC1=O` [Example 2194] ({CH2CO}-[hArg]HDWL[Bip]V[NMeA][dL][Dab][Cha]VKC[Dab][Aun]-OH; thioether N-14), the IC50 came out at 0.0396 µM.
